The subject of test [1] is MCF7. Kind of test: Cell cycle arrest in 24 hrs thymidine-synchronized human MCF7 cells assessed as inhibition of re-entry to cell cycle at 5 to 10 uM after 16 hrs by propidium iodide staining-based flow cytometry. It counts as functional.
In test [2] the test system is MCF7. Nature of the test: Cell cycle arrest in 8 hrs thymidine-synchronized human MCF7 cells assessed as inhibition of re-entry to cell cycle at 5 to 10 uM after 16 hrs by propidium iodide staining-based flow cytometry. Type of test: functional.
Test [3] deals with Cyclin-dependent kinase 2/cyclin E1 (Homo sapiens, UniProt P24941). Kind of test: Inhibition of CDK2/cyclin E (unknown origin) expressed in baculovirus infected Sf9 cells.
The subject of test [4] is K562. Nature of the test: Cytotoxicity against human K562 cells after 72 hrs by calcein AM staining-based fluorescence assay. As to conditions: K562, 72 h. Type of test: functional, cell-based.
For test [5], the system named is MCF7. Kind of test: Cytotoxicity against human MCF7 cells after 72 hrs by calcein AM staining-based fluorescence assay. Type of test: functional, cell-based. Conditions: MCF7, 72 h.
The test system of test [6] is RPMI-8226. Nature of the test: Cytotoxicity against human RPMI8226 cells after 72 hrs by calcein AM staining-based fluorescence assay. Type of test: functional, cell-based. As to conditions: RPMI-8226, 72 h.
Test [7] addresses Cyclin-dependent kinase 1/cyclin B1 (Homo sapiens, UniProt P06493). Nature of the test: Inhibition of CDK1/cyclin B (unknown origin) expressed in baculovirus infected Sf9 cells.
Test [8] has as its target Cyclin-dependent kinase 4/cyclin D1 (Homo sapiens, UniProt P11802). Kind of test: Inhibition of CDK4/cyclin D1 (unknown origin) expressed in baculovirus infected Sf9 cells.
Test [9] addresses Cyclin-dependent kinase 7/ cyclin H (Homo sapiens, UniProt P50613). Kind of test: Inhibition of CDK7/cyclin H (unknown origin) expressed in baculovirus infected Sf9 cells.
A further test deals with CDK9/cyclin T1 (Homo sapiens, UniProt P50750). Kind of test: Inhibition of CDK9/cyclin T1 (unknown origin) expressed in baculovirus infected Sf9 cells.
Test [10] deals with MCF7. Kind of test: Cell cycle arrest in human MCF7 cells assessed as accumulation at G1 phase at 40 uM after 24 hrs by propidium iodide staining-based flow cytometry (reference value: 61.9%). Type of test: functional.
The subject of test [11] is MCF7. Kind of test: Cell cycle arrest in human MCF7 cells assessed as accumulation at S phase at 40 uM after 24 hrs by propidium iodide staining-based flow cytometry (reference value: 28.3%). Type of test: functional.
Test [12] has as its system MCF7. Kind of test: Cell cycle arrest in human MCF7 cells assessed as accumulation at G2/M phase at 40 uM after 24 hrs by propidium iodide staining-based flow cytometry (reference value: 9.8%). Type of test: functional.
The subject of test [13] is MCF7. Nature of the test: Cell cycle arrest in human MCF7 cells assessed as accumulation at subG1 phase at 40 uM after 24 hrs by propidium iodide staining-based flow cytometry (reference value: 0.6%). It counts as functional.
For test [14], the system named is MCF7. Nature of the test: Cell cycle arrest in 24 hrs serum-deprived human asynchronous MCF7 cells assessed as inhibition of re-entry to G1 phase at 6.25 to 25 uM after 16 hrs by propidium iodide staining-based flow cytometry. Type of test: functional.
Test [15] has as its system MCF7. Kind of test: Cell cycle arrest in 24 hrs thymidine-synchronized human MCF7 cells assessed as delay in cell cycle progression at 12.5 to 25 uM after 16 hrs by propidium iodide staining-based flow cytometry. Type of test: functional.
In test [16] the test system is MCF7. Nature of the test: Cell cycle arrest in 8 hrs thymidine-synchronized human MCF7 cells assessed as delay in cell cycle progression at 12.5 to 25 uM after 16 hrs by propidium iodide staining-based flow cytometry. Type of test: functional.
Test [17] concerns K562. Kind of test: Cell cycle arrest in human K562 cells assessed as accumulation at G1 phase at 100 uM after 24 hrs by propidium iodide staining-based flow cytometry (reference value: 26.3%). It counts as functional.
The test system of test [18] is K562. Nature of the test: Cell cycle arrest in human K562 cells assessed as accumulation at S phase at 100 uM after 24 hrs by propidium iodide staining-based flow cytometry (reference value: 47.9%). It counts as functional.
Test [19] relates to K562. Kind of test: Cell cycle arrest in human K562 cells assessed as accumulation at G2/M phase at 100 uM after 24 hrs by propidium iodide staining-based flow cytometry (reference value: 25.8%). Type of test: functional.
For test [20], the system named is K562. Kind of test: Cell cycle arrest in human K562 cells assessed as accumulation at subG1 phase at 100 uM after 24 hrs by propidium iodide staining-based flow cytometry (reference value: 2.3%). It counts as functional.
Test [21] in a line: Cell cycle arrest in human RPMI8226 cells assessed as accumulation at G1 phase at 100 uM after 24 hrs by propidium iodide staining-based flow cytometry (reference value: 22.2%). Type of test: functional. As to conditions: RPMI-8226.
Test [22] in a line: Cell cycle arrest in human RPMI8226 cells assessed as accumulation at S phase at 100 uM after 24 hrs by propidium iodide staining-based flow cytometry (reference value: 53%). Type of test: functional. As to conditions: RPMI-8226.
Test [23] is described as follows: Cell cycle arrest in human RPMI8226 cells assessed as accumulation at G2/M phase at 100 uM after 24 hrs by propidium iodide staining-based flow cytometry (reference value: 24.8%). Type of test: functional. Conditions: RPMI-8226.
Test [24] in a line: Cell cycle arrest in human RPMI8226 cells assessed as accumulation at subG1 phase at 100 uM after 24 hrs by propidium iodide staining-based flow cytometry (reference value: 9.8%). Conditions: RPMI-8226. It counts as functional.
The test system of test [25] is RPMI-8226. Kind of test: Induction of apoptosis in human RPMI8226 cells assessed as caspase 3 activation at 25 to 100 uM after 24 hrs by immunoblot analysis. It counts as functional, cell-based.
Test [26] concerns RPMI-8226. Nature of the test: Induction of apoptosis in human RPMI8226 cells assessed as caspase 7 activation at 25 to 100 uM after 24 hrs by immunoblot analysis. Type of test: functional, cell-based.
Test [27] relates to RPMI-8226. Nature of the test: Induction of apoptosis in human RPMI8226 cells assessed as PARP-1 cleavage at 25 to 100 uM after 24 hrs by immunoblot analysis. It counts as functional, cell-based.
Test [28] relates to RPMI-8226. Kind of test: Induction of apoptosis in human RPMI8226 cells assessed as increase in caspase 3 activity at 25 to 100 uM after 24 hrs by fluorescence assay. It counts as functional, cell-based.
The test system of test [29] is RPMI-8226. Kind of test: Induction of apoptosis in human RPMI8226 cells assessed as increase in caspase 9 activity at 25 to 100 uM after 24 hrs by fluorescence assay. Type of test: functional, cell-based.

The source of these data is ChEMBL document CHEMBL3400068, “Novel arylazopyrazole inhibitors of cyclin-dependent kinases” (Bioorg Med Chem, 2015).

Structures are written as SMILES. Calls of active or inactive are those of the source. The calls are words filed in the database; no cut-off is given here.

Cyclin-dependent kinase 7/ cyclin H, sequence (P51946 whole entry): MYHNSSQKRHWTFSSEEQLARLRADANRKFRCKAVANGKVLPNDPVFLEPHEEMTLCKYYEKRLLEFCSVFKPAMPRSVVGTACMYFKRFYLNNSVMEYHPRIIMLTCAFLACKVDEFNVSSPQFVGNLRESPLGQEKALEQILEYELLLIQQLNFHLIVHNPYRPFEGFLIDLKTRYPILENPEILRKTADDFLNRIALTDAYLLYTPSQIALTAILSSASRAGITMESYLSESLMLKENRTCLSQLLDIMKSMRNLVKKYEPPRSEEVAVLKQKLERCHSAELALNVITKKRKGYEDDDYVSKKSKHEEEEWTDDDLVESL
Cyclin-dependent kinase 7/ cyclin H, sequence (P50613 whole entry): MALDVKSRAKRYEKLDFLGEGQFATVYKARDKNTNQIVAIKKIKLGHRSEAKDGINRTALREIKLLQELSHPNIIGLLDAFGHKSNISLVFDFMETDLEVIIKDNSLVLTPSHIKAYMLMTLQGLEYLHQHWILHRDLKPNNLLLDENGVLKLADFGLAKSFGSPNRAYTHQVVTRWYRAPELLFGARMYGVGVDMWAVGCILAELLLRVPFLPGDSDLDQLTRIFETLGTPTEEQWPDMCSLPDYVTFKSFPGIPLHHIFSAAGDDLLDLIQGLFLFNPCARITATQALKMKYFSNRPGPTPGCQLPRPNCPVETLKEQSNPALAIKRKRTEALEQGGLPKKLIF
CDK9/cyclin T1, sequence (O60563 whole entry): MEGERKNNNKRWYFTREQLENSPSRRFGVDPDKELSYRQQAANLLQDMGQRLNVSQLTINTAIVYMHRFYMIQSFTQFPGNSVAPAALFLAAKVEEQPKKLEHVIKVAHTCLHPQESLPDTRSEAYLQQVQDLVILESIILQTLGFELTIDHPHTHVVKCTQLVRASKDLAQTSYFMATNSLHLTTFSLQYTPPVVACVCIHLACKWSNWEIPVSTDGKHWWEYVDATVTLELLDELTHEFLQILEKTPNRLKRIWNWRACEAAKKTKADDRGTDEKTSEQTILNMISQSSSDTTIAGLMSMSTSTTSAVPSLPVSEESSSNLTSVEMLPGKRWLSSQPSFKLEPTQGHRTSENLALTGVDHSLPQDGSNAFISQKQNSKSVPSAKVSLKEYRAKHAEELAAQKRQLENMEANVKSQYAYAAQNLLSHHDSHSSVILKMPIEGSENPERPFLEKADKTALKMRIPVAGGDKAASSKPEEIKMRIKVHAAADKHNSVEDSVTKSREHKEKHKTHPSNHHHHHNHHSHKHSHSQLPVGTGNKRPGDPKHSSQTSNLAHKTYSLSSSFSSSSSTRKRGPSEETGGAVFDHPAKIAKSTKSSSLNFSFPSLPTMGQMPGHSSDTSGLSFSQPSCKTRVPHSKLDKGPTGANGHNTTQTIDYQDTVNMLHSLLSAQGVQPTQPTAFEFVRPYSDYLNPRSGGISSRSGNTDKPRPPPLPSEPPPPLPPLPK
CDK9/cyclin T1, sequence (P50750 whole entry): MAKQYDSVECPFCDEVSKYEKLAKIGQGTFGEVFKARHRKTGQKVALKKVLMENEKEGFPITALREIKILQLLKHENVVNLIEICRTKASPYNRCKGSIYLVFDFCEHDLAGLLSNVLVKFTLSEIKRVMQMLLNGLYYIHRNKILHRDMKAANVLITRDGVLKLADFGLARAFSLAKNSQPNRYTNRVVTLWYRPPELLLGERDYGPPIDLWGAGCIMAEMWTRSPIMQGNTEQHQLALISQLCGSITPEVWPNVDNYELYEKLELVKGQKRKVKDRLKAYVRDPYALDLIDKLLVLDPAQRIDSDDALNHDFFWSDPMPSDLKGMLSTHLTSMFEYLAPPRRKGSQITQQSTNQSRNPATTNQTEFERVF
Cyclin-dependent kinase 1/cyclin B1, sequence (P06493 whole entry): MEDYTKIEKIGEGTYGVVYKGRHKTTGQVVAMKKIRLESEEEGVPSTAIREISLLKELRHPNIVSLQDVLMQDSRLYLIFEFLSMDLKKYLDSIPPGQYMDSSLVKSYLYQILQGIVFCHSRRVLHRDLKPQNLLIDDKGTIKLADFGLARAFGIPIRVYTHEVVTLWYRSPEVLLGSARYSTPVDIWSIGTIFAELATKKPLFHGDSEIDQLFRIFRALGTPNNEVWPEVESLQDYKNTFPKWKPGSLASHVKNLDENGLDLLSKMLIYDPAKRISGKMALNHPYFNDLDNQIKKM
Cyclin-dependent kinase 1/cyclin B1, sequence (P14635 whole entry, further chain): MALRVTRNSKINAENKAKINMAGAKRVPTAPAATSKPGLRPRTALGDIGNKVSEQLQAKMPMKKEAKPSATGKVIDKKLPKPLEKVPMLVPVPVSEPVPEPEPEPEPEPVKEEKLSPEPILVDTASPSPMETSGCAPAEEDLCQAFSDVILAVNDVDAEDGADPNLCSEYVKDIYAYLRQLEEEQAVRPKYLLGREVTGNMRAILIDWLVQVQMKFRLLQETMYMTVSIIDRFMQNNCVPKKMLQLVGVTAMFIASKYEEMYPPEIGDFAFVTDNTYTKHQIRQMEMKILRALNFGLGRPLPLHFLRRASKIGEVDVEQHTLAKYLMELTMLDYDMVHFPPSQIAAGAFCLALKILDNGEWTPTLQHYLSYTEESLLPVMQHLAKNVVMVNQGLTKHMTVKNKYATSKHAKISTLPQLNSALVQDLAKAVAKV
Cyclin-dependent kinase 4/cyclin D1, sequence (P11802 whole entry): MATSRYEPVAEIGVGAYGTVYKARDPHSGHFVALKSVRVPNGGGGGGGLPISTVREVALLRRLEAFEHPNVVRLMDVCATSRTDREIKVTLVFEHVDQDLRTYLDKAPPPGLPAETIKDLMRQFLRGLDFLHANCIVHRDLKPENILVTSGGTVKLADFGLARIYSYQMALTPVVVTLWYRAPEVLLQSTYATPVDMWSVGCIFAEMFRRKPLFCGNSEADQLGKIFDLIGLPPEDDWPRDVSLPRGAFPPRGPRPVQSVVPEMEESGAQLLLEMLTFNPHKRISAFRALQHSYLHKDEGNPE
Cyclin-dependent kinase 4/cyclin D1, sequence (P24385 whole entry, further chain): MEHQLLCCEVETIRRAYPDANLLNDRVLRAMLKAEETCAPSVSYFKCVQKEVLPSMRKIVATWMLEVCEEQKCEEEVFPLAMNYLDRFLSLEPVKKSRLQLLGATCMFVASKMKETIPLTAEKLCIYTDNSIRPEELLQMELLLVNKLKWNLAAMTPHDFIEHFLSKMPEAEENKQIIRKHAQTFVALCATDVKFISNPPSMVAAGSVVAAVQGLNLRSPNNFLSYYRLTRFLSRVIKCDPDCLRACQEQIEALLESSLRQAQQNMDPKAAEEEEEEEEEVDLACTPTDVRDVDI

Consider `CCn1cnc2c(Nc3cccc(Cl)c3)nc(N[C@@H]3CCCC[C@@H]3N)nc21`, for which the inhibition entry in the test with MCF7 [1] and in the test with MCF7 [2] was “Active” throughout.
As for `Nc1n[nH]c(N)c1/N=N/c1cc[n+]([O-])cc1`, the IC50 in test [3] is 17.4 µM; in the test with K562 [4], over 100 µM; in the test with MCF7 [5], over 100 µM; with RPMI-8226 [6], over 100 µM.
With `Cn1nc(N)c(/N=N/c2ccc(O)cc2)c1N`, the IC50 was over 50 µM in test [3], 98.5 µM in the test with K562 [4], over 100 µM in the test on MCF7 [5] and over 100 µM in the test with RPMI-8226 [6].
As to `Cn1nc(N)c(/N=N/c2ccncc2)c1N`, the concentration for half-maximal inhibition (IC50) in test [3] was 16.8 µM; in the test with K562 [4], 67.4 µM; in the test on MCF7 [5], 37.7 µM; with RPMI-8226 [6], 50 µM; in test [7] it was 11.3 µM; in test [8], 0.42 µM. Further, the results for the IC50 (in [9]; on CDK9/cyclin T1) were over 50 µM and 1.35 µM, respectively. Also, the Activity is reported as 50.6% with MCF7 [10]; 15.8% in the test on MCF7 [11]; 33.5% in the test on MCF7 [12]; 1% in the test with MCF7 [13]; 33.2% in the test on K562 [17]; 31.4% with K562 [18]. The Activity is 35.4% in the test on K562 [19]; 6.5% in the test on K562 [20]; 31.3% in [21]; 39.8% in test [22]; 28.9% in test [23]; 57.7% in [24]. Also, the outcome with MCF7 [14], in the test on MCF7 [15], in the test with MCF7 [16], in the test with RPMI-8226 [25], in the test with RPMI-8226 [26] and in the test on RPMI-8226 [27] was Active. In addition, the result in the test with RPMI-8226 [28] and in the test with RPMI-8226 [29] was Active.
As to `Nc1nn(C(=O)c2ccc([N+](=O)[O-])cc2)c(N)c1/N=N/c1ccc(O)cc1`, the half-inhibitory concentration (IC50) is 15 µM in test [3], over 25 µM with K562 [4], over 25 µM in the test with MCF7 [5] and over 100 µM in the test with RPMI-8226 [6].
In the case of `Nc1n[nH]c(N)c1/N=N/c1cccc[n+]1[O-]`, the IC50 was over 100 µM in [3], 62.6 µM in the test with K562 [4], over 100 µM in the test on MCF7 [5] and over 100 µM in the test with RPMI-8226 [6].
Regarding `CCOC(=O)n1nc(N)c(/N=N/c2ccc(O)cc2)c1N`, the IC50 in test [3] was over 50 µM; with K562 [4], over 100 µM; in the test on MCF7 [5], over 100 µM; in the test on RPMI-8226 [6], over 100 µM.
For `Nc1n[nH]c(N)c1/N=N/c1ccncc1`, the IC50 in the test with K562 [4] was 17 µM; with MCF7 [5] it was 4.3 µM; in the test on RPMI-8226 [6], 6.2 µM.
With `Nc1nn(C(=O)c2cccs2)c(N)c1/N=N/c1ccc(O)cc1`, the IC50 in test [3] was over 25 µM; with K562 [4] it was over 25 µM; with MCF7 [5], over 25 µM; in the test with RPMI-8226 [6], over 100 µM.
Regarding `CC(=O)n1nc(N)c(/N=N/c2ccc(O)cc2)c1N`, the 50% inhibitory concentration (IC50) in test [3] is 42.8 µM; with K562 [4], 64.9 µM; with MCF7 [5], 44.9 µM; in the test with RPMI-8226 [6], over 100 µM.
On to `Nc1n[nH]c(N)c1/N=N/c1ccc(O)cc1`, for which the results for the IC50 in the test with K562 [4], with MCF7 [5] and in the test with RPMI-8226 [6] were 33 µM, 62 µM and 24.9 µM, respectively.
